Patent US20090010923A1, “TREATMENT OF CANCER WITH ANTI-MUSCARINIC RECEPTOR AGENTS” (University of Maryland, Baltimore, priority 2007, published 2009)
Entries after “also recorded” stand apart in the source; their conditions may differ.

Experiments:
M1R and M3R = test system: M1R and M3R
Text: Muscarinic receptor subtypes were expressed in murine gastric chief cells using M1R^−/−, M3R^−/− and M1/3R^−/− mice. […] The mice were generated using gene targeting.

SNU-C4 cells = test: Cell proliferation, sulforhodamine B (SRB) colorimetric assay, SNU-C4 cells; assay type: cell-based, human; details: 5 days, 37° C., alone; cells express EGFR but not M3R
Procedure: (§1) FIG. 1 depicts bile acid-induced colon cancer cell proliferation which requires M3R expression and activation in H508 and SNU-C4 cells. […] Cell proliferation was determined using the sulforhodamine B (SRB) colorimetric assay. Mean±SEM of 3 exp.
(§2) Cells that are known to express both EGFR and M3R were treated with several M3R antagonists and bile acid conjugates to determine if M3R ligand binding affected EGFR activation. […] Cell proliferation was determined using the sulforhodamine B (SRB) colorimetric assay. […] Mean±SEM of 3 exp.

H508 cells [1] = test: Cell proliferation, sulforhodamine B (SRB) colorimetric assay, H508 cells; assay type: cell-based, human; details: 5 days, 37° C.; for proliferation of H508 cells: alone, cells co-express M3R and EGFR
Procedure: as §1, §2
MAPK activation was detected with 10 μM and maximal with 300 μM DCT. […] DCT-induced MAPK activation is rapid and reversible. MAPK activation is detected within 1 min, maximal by 10-20 min and returns to basal by 70 min. Collectively these findings emphasize the importance of co-expression of M3R and EGFR for both ACh- and bile acid-induced colon cancer cell proliferation, and define relevant DCT concentrations.

[2] = test system: muscarinic receptors on gastric chief cells; test: Pepsinogen secretion from gastric chief cells; assay type: cell-based
[3] = test system: muscarinic receptors on gastric chief cells; test: Competition for binding with a muscarinic radioligand, gastric chief cells
[4] = test system: muscarinic receptors on gastric chief cells; test: IP formation, gastric chief cells; assay type: cell-based
WT and M3R−/− mice = test: AOM murine colon cancer model (WT and M3R-/- mice); assay type: in vivo, mouse; details: for colon tumor number: 20 weeks
Procedure: WT and M3R^−/− male mice (129S6/SvEvTac×CFl; 50%/50%) were treated for 6 wks in which 48 animals received weekly intraperitoneal (ip) PBS (control) or AOM (10 mg/kg). The AOM mouse model is a well-established, commonly used model that mimics human colon carcinogenesis. AOM, an intermediate in the metabolism of 1,2-dimethylhydrazine to the alkylating ion methyldiazonium, is a well-known colorectal-specific pro carcinogen. AOM-induced rodent tumors mimic human colon cancer in that most tumors arise in the colon, form grossly visible exophytic polypoid or plaque-like growths, and have a microscopic appearance similar to that of human lesions. Molecular changes in AOM-induced tumors, including β-catenin and p53 mutations, which also mimic those in human colon cancer. […] Short-term study end-points are identified (e.g. aberrant crypt foci (ACF), β-catenin-accumulating crypts (BCAC) and BrdUrd staining) and potential toxicity was evaluated, a smaller group of mice is euthanized early, upon completion of AOM treatment. During the study, WT and M3R^−/− mice were given weekly (for 6 weeks) intraperitoneal (ip) PBS (control; n=10 WT-PBS mice) or AOM (10 mg/kg; n=22 WT-AOM and 16 WT and M3R^−/−-AOM mice). […] Animals were housed under identical conditions and fed standard mouse chow. Mice were weighed weekly, observed for evidence of tumor formation (e.g., anal bleeding) and euthanized at 20 weeks. Colon length was measured, segments opened longitudinally, and tumors identified and photographed using a Nikon SMZ1500 dissecting microscope. Tumor number and diameter were measured using Image-Pro software and tumor volume was calculated: vol=½ width×length^2. Two hours before euthanasia, mice received intraperitoneal injection of BrdU (Sigma-Aldrich) (50 mg/kg) to label S-phase cells, a marker of proliferation. BrdU labeling was determined after immunostaining with anti-BrdU antibody (BD Bioscience) by counting BrdU-positive nuclei in 1000 cells (data expressed as percent of total cells that were BrdU-positive). As a marker of apoptosis, we used immunostaining with anti-activated caspase-3 antibody (Cell Signaling Technology). Only complete crypts were evaluated and investigators were masked to treatment group. For analysis of both BrdU and activated caspase-3 staining, only tissue from the distal half of the colon was examined.

H508 cells [5] = test: p44/42 MAPK phosphorylation/activation in H508 colon cancer cells; assay type: cell-based, human
Text: (§3) In H508 colon cancer cells, acetylcholine (ACh) activates p44/42 MAPK and p90RSK, which is a nuclear response protein that regulates gene expression and the cell cycle.

[6] = test system: CHO cells expressing rat M3R (CHO-rM3R); test: p44/42 MAPK phosphorylation in CHO cells expressing rat M3R; assay type: cell-based
Text: as §3

colon cancer cells [7] = test: Post-EGFR PI3K/Akt and GSK-3 signaling in colon cancer cells; assay type: cell-based
Text: The rationale for including both murine colon cancer models in this study is to observe important differences between these cancer models. Although the Apc^Min/+ genotype mimics more closely the human condition (e.g. FAP), the AOM-treated mouse phenotype is more similar to human colon cancer. […] Additionally, Apc^Min/+ mice provide an opportunity to study the relationship between M3R and activation and expression of genes in the Wnt/β-catenin signaling pathway. Binding of Wnt to its cell surface receptor (Frizzled) leads to activation of β-catenin (nuclear translocation and binding to Tcf/LEF, resulting in transcription of important target genes, including cyclin D1). Apc, is a scaffold protein that promotes GSK-3α/β-mediated phosphorylation of β-catenin; phosphorylated β-catenin is targeted for proteosomal degradation, thereby preventing nuclear translocation and pro-proliferative gene transcription. Mutated Apc in Apc^Min/+ mice results in reduced β-catenin phosphorylation, thereby promoting nuclear translocation and pro-proliferative actions. […] These findings provide strong evidence that bile acid-activated M3R signaling can promote pro-proliferative actions of β-catenin. The Apc^Min/+ mouse provides an excellent model to elucidate the role of M3R activation and expression in Wnt/β-catenin signaling.
(§4) apoptosis, or both. Deoxycholic acid induces apoptosis.

colon cancer cells [8] = test: Caspase-3 activation (apoptosis) in colon cancer cells; assay type: cell-based
Text: as §4

[9] = cited from earlier work

## cholecystokinin [cholecystokinin (CCK)]
M1R and M3R
  agonist-induced pepsinogen secretion: not altered

## C[C@H](CCC(=O)NCC(=O)O)[C@H]1CC[C@H]2[C@@H]3CC[C@@H]4C[C@H](O)CC[C@]4(C)[C@H]3C[C@H](O)[C@]12C [DCG]
SNU-C4 cells
  proliferation of SNU-C4 cells: do not significantly alter proliferation
H508 cells [1]
  proliferation of H508 cells: stimulate proliferation

## NCCS(=O)(=O)O [taurine]
[2]
  pepsinogen secretion: did not alter
[3]
  competition for binding with a muscarinic radioligand: did not alter
[4]
  IP formation: did not alter

## CN=[N+](C)[O-] [AOM, azoxymethane]
WT and M3R−/− mice; AOM-treated M3R-/- mice
  BrdU-positive cells in colon epithelium: 7.2±0.9%
  adenocarcinomas/mouse: 0.6±0.1
  mice with adenomas: 6%
  tumor volume: 8.1±1.5 mm^3
  colon tumor number: 3.2±0.3 tumors/colon
WT and M3R−/− mice; AOM-treated WT mice
  BrdU-positive cells in colon epithelium: 16.6±4.0%
  adenocarcinomas/mouse: 1.7±0.4
  mice with adenomas: 36%
  tumor volume: 20.3±4.1 mm^3
  colon tumor number: 5.3±0.5 tumors/colon
WT and M3R−/− mice; AOM-treated WT mice vs PBS-treated WT, 10 mg/kg ip weekly x 6 wks, 20 wks
  increase in BrdU-positive epithelial cells: 5 fold
WT and M3R−/− mice; PBS-treated WT, AOM-treated WT and M3R-/- mice
  number of apoptotic cells (activated caspase-3): no significant difference
WT and M3R−/− mice; WT mice treated with AOM
  increase in tumors/animal: 5 fold

## CC(=O)OCC[N+](C)(C)C [ACh, acetylcholine]
H508 cells [5]; H508 cells
  ACh-induced p44/42 MAPK phosphorylation: 14 fold
[6]
  ACh-induced p44/42 MAPK phosphorylation: 27 fold

## cholyltaurine
[2]
  pepsinogen secretion: did not alter
[3]
  competition for binding with a muscarinic radioligand: did not alter
[4]
  IP formation: did not alter

## C[C@H](CCC(=O)NCCS(=O)(=O)O)[C@H]1CC[C@H]2[C@@H]3CC[C@@H]4C[C@H](O)CC[C@]4(C)[C@H]3C[C@H](O)[C@]12C [DCT, Deoxycholyltaurine]
SNU-C4 cells
  proliferation of SNU-C4 cells: do not significantly alter proliferation
H508 cells [5]
  DCT concentration at which MAPK activation was detected: 10 µM
  DCT concentration at which MAPK activation was maximal: 300 µM
  time at which MAPK activation is detected: ≤ 1 min
  time at which MAPK activation returns to basal: ≤ 70 min
  time of maximal MAPK activation: 10 to 20 min
Colon cancer cells [7]; colon cancer cells
  phosphorylation of GSK-3α/β: stimulates an inactivating phosphorylation
Colon cancer cells [7]; preliminary studies
  post-EGFR PI3K/Akt signaling: activates
Colon cancer cells [8]
  DCT-induced apoptosis (caspase-3 activation): no evidence of DCT-induced apoptosis
H508 cells [1]
  proliferation of H508 cells: stimulate proliferation; also recorded: stimulated after 5 days

## CN1[C@@H]2CC[C@H]1C[C@@H](OC(=O)C(CO)c1ccccc1)C2 (stereo partly drawn) [atropine]
[2]
  inhibition of the actions of LCT: inhibited the actions of LCT
H508 cells [1]; with DCT
  inhibition of actions of DCT on H508 proliferation: inhibited

## CCCC[N+]1(C)[C@@H]2C[C@@H](OC(=O)[C@H](CO)c3ccccc3)C[C@H]1[C@@H]1O[C@@H]12 (stereo partly drawn) [scopolamine butylbromide]
[9]; in vivo
  activity of metabolites: inactive
  half-life of the terminal elimination phase: about 5 hr
  protein binding: low
[9]; quaternary ammonium derivative
  blood-brain barrier crossing: does not cross the blood-brain barrier

## C[C@H](CCC(=O)NCCS(=O)(=O)O)[C@H]1CC[C@H]2[C@@H]3CC[C@@H]4C[C@H](O)CC[C@]4(C)[C@H]3CC[C@]12C [LCT, lithocholyltaurine]
[2]
  pepsinogen secretion: stimulating pepsinogen secretion
SNU-C4 cells
  proliferation of SNU-C4 cells: do not significantly alter proliferation
[3]
  competition for binding with a muscarinic radioligand: competed for binding
[4]
  IP formation: increased IP formation
H508 cells [1]
  proliferation of H508 cells: stimulate proliferation
